This passage reports IC50 results from US20230391739A1, “ARYL DERIVATIVES FOR TREATING TRPM3 MEDIATED DISORDERS” (Katholieke Universiteit Leuven, priority 2020, published 2023).

This experiment addresses T1, mouse TRPM3α2 (mTRPM3) ion channel (Mus musculus, UniProt J9SQF3).
T1 construct: expressed in transfected cells; host or cells: flip-in HEK293
Put plainly: TRPM3 ion channel driven Ca2+ uptake, Fluo-4 AM assay, PS-stimulated (mTRPM3). The class given is cell-based. Conditions: TRPM3 overexpressing flip-in HEK293 cells stimulated with Pregnenolone sulfate (PS) 50 μM, activity ranges A, B, C. Here is the method:
Monitoring the TRPM3 Ion Channel Driven Ca^2+ Uptake.
In order to monitor the inhibition of the mouse TRPM3α2 (mTRPM3) ion channel by the compounds of the invention, a cellular system making use of an mTRPM3alpha2 or hTRPM3 overexpressing cell line (flip-in HEK293) was used. The TRPM3 channel was stimulated/opened with Pregnenolone sulfate (PS) (50 μM) which results in Ca^2+ influx.
For mTRPM3, the intracellular Ca^2+ was measured with a Calcium responsive dye, Fluor-4 AM ester (Invitrogen). Cells were cultured until a confluence of 80-90%, washed with Versene (Invitrogen) and detached from the surface by a short incubation with 0.05% Trypsin (Invitrogen). The trypsination process was stopped by the addition of complete cell culture medium (DMEM, glutamax, 10% FCS, NEAA, Pen-Strep). Cells were collected and resuspended in Krebs buffer without Calcium at RT.
Prior the cell seeding (±2000 cells/well into a black, 384 well plate (Greiner)) the diluted compound was added in the assay plate, together with the PS dissolved in Krebs buffer containing Calcium. […] Directly after cell addition the plates were read on an Envision fluorescence reader (Perkin Elmer) by an Excitation of 485 nm and emission at 535 nm.
Channel inhibition was calculated compared to a non-PS stimulated control versus a condition stimulated with PS (50 μM) with vehicle. The ability of the compounds of the invention to inhibit this activity was determined as: Percentage inhibition=[1−((RFU determined for sample with test compound present−RFU determined for sample with positive control inhibitor) divided by (RFU determined in the presence of vehicle−RFU determined for sample with positive control inhibitor))]*100.
The activities of the Example compounds tested are depicted in the table below.

T1 sequence (J9SQF3 1-1709 isoform J9SQF3-12): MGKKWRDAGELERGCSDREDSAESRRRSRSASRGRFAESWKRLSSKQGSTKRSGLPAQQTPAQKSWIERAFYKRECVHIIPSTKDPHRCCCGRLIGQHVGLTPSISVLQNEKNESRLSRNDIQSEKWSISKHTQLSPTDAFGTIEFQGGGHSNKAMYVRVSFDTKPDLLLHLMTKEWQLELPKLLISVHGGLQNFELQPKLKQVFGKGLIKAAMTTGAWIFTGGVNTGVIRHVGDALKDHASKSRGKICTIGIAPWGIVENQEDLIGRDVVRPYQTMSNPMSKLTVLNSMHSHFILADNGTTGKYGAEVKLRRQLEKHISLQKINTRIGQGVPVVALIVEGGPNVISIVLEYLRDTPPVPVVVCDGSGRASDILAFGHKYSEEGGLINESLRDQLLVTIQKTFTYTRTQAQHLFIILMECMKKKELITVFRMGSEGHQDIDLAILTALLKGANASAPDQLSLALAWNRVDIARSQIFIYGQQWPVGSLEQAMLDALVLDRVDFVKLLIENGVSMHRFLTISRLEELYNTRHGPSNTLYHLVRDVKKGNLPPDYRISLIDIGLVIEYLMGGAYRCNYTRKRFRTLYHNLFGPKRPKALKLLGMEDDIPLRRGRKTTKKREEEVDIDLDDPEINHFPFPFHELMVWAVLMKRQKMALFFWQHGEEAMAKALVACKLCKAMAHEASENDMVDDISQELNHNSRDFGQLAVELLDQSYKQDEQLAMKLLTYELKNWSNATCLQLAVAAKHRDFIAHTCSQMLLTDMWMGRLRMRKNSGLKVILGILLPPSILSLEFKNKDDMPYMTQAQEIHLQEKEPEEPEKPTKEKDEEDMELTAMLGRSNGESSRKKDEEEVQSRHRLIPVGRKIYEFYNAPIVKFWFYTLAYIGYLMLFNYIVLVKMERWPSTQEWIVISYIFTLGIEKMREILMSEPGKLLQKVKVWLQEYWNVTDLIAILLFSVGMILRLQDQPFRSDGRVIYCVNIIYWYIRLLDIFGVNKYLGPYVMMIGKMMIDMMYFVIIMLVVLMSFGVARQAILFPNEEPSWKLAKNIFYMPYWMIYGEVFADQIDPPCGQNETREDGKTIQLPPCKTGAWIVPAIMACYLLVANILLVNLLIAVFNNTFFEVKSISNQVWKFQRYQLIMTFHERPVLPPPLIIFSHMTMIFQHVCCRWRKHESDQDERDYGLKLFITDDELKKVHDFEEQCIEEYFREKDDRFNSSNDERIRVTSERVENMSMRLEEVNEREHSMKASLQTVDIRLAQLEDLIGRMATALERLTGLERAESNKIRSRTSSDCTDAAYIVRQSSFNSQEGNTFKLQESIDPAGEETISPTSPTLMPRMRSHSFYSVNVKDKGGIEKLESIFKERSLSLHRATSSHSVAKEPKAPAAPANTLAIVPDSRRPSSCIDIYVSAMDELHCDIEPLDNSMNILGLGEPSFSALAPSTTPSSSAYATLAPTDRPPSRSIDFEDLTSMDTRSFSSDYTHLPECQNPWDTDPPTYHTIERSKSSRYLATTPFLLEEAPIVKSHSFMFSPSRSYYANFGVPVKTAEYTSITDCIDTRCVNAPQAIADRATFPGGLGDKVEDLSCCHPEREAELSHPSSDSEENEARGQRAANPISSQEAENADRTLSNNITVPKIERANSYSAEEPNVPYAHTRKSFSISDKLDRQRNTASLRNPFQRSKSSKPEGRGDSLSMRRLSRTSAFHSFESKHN

Usually IC50 stands for the midpoint of a concentration-inhibition curve. A low value points to greater potency in that assay. `Cc1oc2ccc(OCc3ccccc3F)cc2c1C(=O)NC(C)CO` (single isomer, unassigned) [Cpd 328-En 1] yielded an IC50 below 1000 nM.
Next, `Cc1oc2ccc(OCc3ccccc3F)cc2c1C(=O)NC(C)CO` (single isomer, unassigned) [Cpd 328-En 2]: below 1000 nM; `Cc1oc2ccc(OCc3ccccc3F)cc2c1C(=O)N[C@@H]1COC[C@@H]1O` (single isomer, unassigned) [Cpd 329-En 1]: below 1000 nM; `Cc1oc2ccc(OCc3ccccc3F)cc2c1C(=O)N[C@@H]1COC[C@@H]1O` (single isomer, unassigned) [Cpd 329-En 2]: below 1000 nM.
In turn, `Cc1oc2ccc(OCc3ccccc3F)cc2c1C(=O)N[C@@H]1COC[C@H]1O` (single isomer, unassigned) [Cpd 330-En 1] had an IC50 below 1000 nM.
`Cc1oc2ccc(OCc3ccccc3F)cc2c1C(=O)NC1COCC1(F)F` (single isomer, unassigned) [Cpd 331-En 1] had an IC50 above 20000 nM.
Next, `Cc1oc2ccc(OCc3ccccc3F)cc2c1C(=O)NC1COCC1(F)F` (single isomer, unassigned) [Cpd 331-En 2]: below 1000 nM.
The compound `Cc1oc2ccc(OCc3ccccc3S(C)(=O)=O)cc2c1C(=O)NC1CCNCC1(F)F` (single isomer, unassigned) [Cpd 333-En 1, N-(3,3-difluoropiperidin-4-yl)-2-methyl-5-((2-(methylsulfonyl)benzyl)oxy)benzofuran-3-carboxamide] came in with a half-maximal inhibitory concentration (IC50) of 1000 to 20000 nM.
In turn, `Cc1oc2ccc(OCc3ccccc3S(C)(=O)=O)cc2c1C(=O)NC1CCNCC1(F)F` (single isomer, unassigned) [Cpd 333-En 2, N-(3,3-difluoropiperidin-4-yl)-2-methyl-5-((2-(methylsulfonyl)benzyl)oxy)benzofuran-3-carboxamide] returned an IC50 below 1000 nM.
Regarding `Cc1oc2ccc(OCc3ccccc3F)cc2c1C(=O)NC1(CO)CCNC1=O` (single isomer, unassigned) [Cpd 334-En 1], the concentration for half-maximal inhibition (IC50) is below 1000 nM.
With `Cc1oc2ccc(OCc3ccccc3F)cc2c1C(=O)NC1(CO)CCNC1=O` (single isomer, unassigned) [Cpd 334-En 2], the IC50 is below 1000 nM.
As for `Cc1oc2ccc(OC(CO)c3ccccc3F)cc2c1C(=O)N[C@@H](CO)C(N)=O` (single isomer, unassigned) [Cpd 335-Dia 1], the IC50 was below 1000 nM.
For the compound `Cc1oc2ccc(OC(CO)c3ccccc3F)cc2c1C(=O)N[C@@H](CO)C(N)=O` (single isomer, unassigned) [Cpd 335-Dia 2], the IC50 was below 1000 nM.
As for `Cc1oc2ccc(OC(C)c3ccccc3)cc2c1C(=O)N[C@@H](CO)C(N)=O` (single isomer, unassigned) [Cpd 336-Dia 1], the IC50 was below 1000 nM.
In turn, `Cc1oc2ccc(OC(C)c3ccccc3)cc2c1C(=O)N[C@@H](CO)C(N)=O` (single isomer, unassigned) [Cpd 336-Dia 2] displayed an IC50 below 1000 nM.
The same measure for `Cc1oc2ccc(OC(C)c3ccccc3)cc2c1C(=O)NC1(C(N)=O)CCC1` (single isomer, unassigned) [Cpd 343-En 1, N-(1-carbamoylcyclobutyl)-2-methyl-5-(1-phenylethoxy)benzofuran-3-carboxamide]: below 1000 nM.
For the compound `Cc1oc2ccc(OC(C)c3ccccc3)cc2c1C(=O)NC1(C(N)=O)CCC1` (single isomer, unassigned) [Cpd 343-En 2, N-(1-carbamoylcyclobutyl)-2-methyl-5-(1-phenylethoxy)benzofuran-3-carboxamide], the IC50 is below 1000 nM.
For the compound `Cc1oc2ccc(OC(CO)c3ccccc3F)cc2c1C(=O)NC1(C(N)=O)CCC1` (single isomer, unassigned) [Cpd 345-En 1, N-(1-carbamoylcyclobutyl)-5-(1-(2-fluorophenyl)-2-hydroxyethoxy)-2-methylbenzofuran-3-carboxamide], the IC50 was below 1000 nM.
`Cc1oc2ccc(OC(CO)c3ccccc3F)cc2c1C(=O)NC1(C(N)=O)CCC1` (single isomer, unassigned) [Cpd 345-En 2, N-(1-carbamoylcyclobutyl)-5-(1-(2-fluorophenyl)-2-hydroxyethoxy)-2-methylbenzofuran-3-carboxamide] registered an IC50 below 1000 nM.
The compound `COCC(Oc1ccc2oc(C)c(C(=O)N[C@@H](CO)C(N)=O)c2c1)c1ccccc1` (single isomer, unassigned) [Cpd 346-En 1] had an IC50 below 1000 nM.
`COCC(Oc1ccc2oc(C)c(C(=O)N[C@@H](CO)C(N)=O)c2c1)c1ccccc1` (single isomer, unassigned) [Cpd 346-En 2] registered an IC50 below 1000 nM.
`Cc1oc2ccc(OC(CN(C)C)c3ccccc3)cc2c1C(=O)N[C@@H](CO)C(N)=O` (single isomer, unassigned) [Cpd 347-En 1]: the IC50 was in the range of 1000 to 20000 nM.
`Cc1oc2ccc(OC(CN(C)C)c3ccccc3)cc2c1C(=O)N[C@@H](CO)C(N)=O` (single isomer, unassigned) [Cpd 347-En 2]: the IC50 was below 1000 nM.
`O=C(O)c1coc2ccc(OCc3ccccc3)cc12` [Cpd 001, 5-(benzyloxy)benzofuran-3-carboxylic acid] showed a half-inhibitory concentration (IC50) of 1000 to 20000 nM.
In turn, `Cc1oc2ccc(OCc3ccccc3)cc2c1C(=O)O` [Cpd 002, 5-(benzyloxy)-2-methylbenzofuran-3-carboxylic acid] yielded an IC50 below 1000 nM.
Next, `Cc1ccccc1COc1ccc2oc(C)c(C(=O)O)c2c1` [Cpd 003, 2-methyl-5-((2-methylbenzyl)oxy)benzofuran-3-carboxylic acid]: below 1000 nM; `Cc1oc2ccc(OC(C)c3ccccc3)cc2c1C(=O)O` (stereo not shown) [Cpd 004, 2-methyl-5-(1-phenylethoxy)benzofuran-3-carboxylic acid]: 1000 to 20000 nM; `Cc1cccc(COc2ccc3oc(C)c(C(=O)O)c3c2)c1` [Cpd 005, 2-methyl-5-((3-methylbenzyl)oxy)benzofuran-3-carboxylic acid]: below 1000 nM.
With `Cc1ccc(COc2ccc3oc(C)c(C(=O)O)c3c2)cc1` [Cpd 006, 2-methyl-5-((4-methylbenzyl)oxy)benzofuran-3-carboxylic acid], the IC50 lay in the range of 1000 to 20000 nM.
In the case of `Cc1oc2ccc(OCc3ccccc3F)cc2c1C(=O)O` [Cpd 008, 5-((2-fluorobenzyl)oxy)-2-methylbenzofuran-3-carboxylic acid], the half-maximal inhibitory concentration (IC50) was below 1000 nM.
Compound `Cc1oc2ccc(OCc3ccc(F)cc3)cc2c1C(=O)O` [Cpd 009, 5-((4-fluorobenzyl)oxy)-2-methylbenzofuran-3-carboxylic acid] returned an IC50 of 1000 to 20000 nM.
In the case of `Cc1oc2ccc(OCc3ccccc3C#N)cc2c1C(=O)O` [Cpd 010, 5-((2-cyanobenzyl)oxy)-2-methylbenzofuran-3-carboxylic acid], the half-inhibitory concentration (IC50) is 1000 to 20000 nM.
`Cc1oc2ccc(OC3CCc4ccccc43)cc2c1C(=O)O` (stereo not shown) [Cpd 011, 5-((2,3-dihydro-1H-inden-1-yl)oxy)-2-methylbenzofuran-3-carboxylic acid] returned an IC50 of 1000 to 20000 nM.
Next, `COc1cccc(COc2ccc3oc(C)c(C(=O)O)c3c2)c1` [Cpd 012, 5-((3-methoxybenzyl)oxy)-2-methylbenzofuran-3-carboxylic acid]: below 1000 nM; `COc1ccccc1COc1ccc2oc(C)c(C(=O)O)c2c1` [Cpd 013, 5-((2-methoxybenzyl)oxy)-2-methylbenzofuran-3-carboxylic acid]: 1000 to 20000 nM.
Take `COc1ccc(COc2ccc3oc(C)c(C(=O)O)c3c2)cc1` [Cpd 014, 5-((4-methoxybenzyl)oxy)-2-methylbenzofuran-3-carboxylic acid]: the IC50 lay within 1000 to 20000 nM.
On to `CCc1oc2ccc(OCc3cccc(F)c3)cc2c1C(=O)O` [Cpd 015, 2-ethyl-5-((3-fluorobenzyl)oxy)benzofuran-3-carboxylic acid], for which the IC50 is 1000 to 20000 nM.
Next, `Cc1oc2ccc(OCc3ccc(Cl)cc3)cc2c1C(=O)O` [Cpd 016, 5-((4-chlorobenzyl)oxy)-2-methylbenzofuran-3-carboxylic acid]: 1000 to 20000 nM; `Cc1oc2ccc(OCc3cccc(Cl)c3)cc2c1C(=O)O` [Cpd 017, 5-((3-chlorobenzyl)oxy)-2-methylbenzofuran-3-carboxylic acid]: 1000 to 20000 nM; `Cc1oc2ccc(OCc3ccccc3Cl)cc2c1C(=O)O` [Cpd 018, 5-((2-chlorobenzyl)oxy)-2-methylbenzofuran-3-carboxylic acid]: 1000 to 20000 nM.
On to `COCc1oc2ccc(OCc3cccc(F)c3)cc2c1C(=O)O` [Cpd 020, 5-((3-fluorobenzyl)oxy)-2-(methoxymethyl)benzofuran-3-carboxylic acid], for which the IC50 lay within 1000 to 20000 nM.
The same measure for `Cc1oc2ccc(OCc3c(F)cccc3Cl)cc2c1C(=O)O` [Cpd 021, 5-((2-chloro-6-fluorobenzyl)oxy)-2-methylbenzofuran-3-carboxylic acid]: 1000 to 20000 nM; for `Cc1oc2ccc(OCc3ccc(F)cc3Cl)cc2c1C(=O)O` [Cpd 022, 5-((2-chloro-4-fluorobenzyl)oxy)-2-methylbenzofuran-3-carboxylic acid]: 1000 to 20000 nM.
